Source: US11925646B2, “Agent for treating or preventing cancer, and combination of RF pathway inhibitor and MEK inhibitor for treating or preventing cancer” (NATIONAL UNIVERSITY CORPORATION HOKKAIDO UNIVERSITY, priority 2021, dated 2024)

Columns and labels:
[1] = test system: RF pathway; assay: Liquid chromatography mass spectrometry of RoF, RF, FMN and FAD within the cells; type: cell-based, human; details: MIAPaCa-2, PANC-1 and Capan-1; 10 μM RoF, 48 hours; vs DMSO control
[2] = test system: MIAPaCa-2; assay: MTS assay, relative survival rate with roseoflavin; type: cell-based, human; details: RoF 0.1 to 10 μM, 24, 48 or 72 hours, ratio to solvent control at 72 hours
Method: (§1) Human pancreatic cancer cells were treated with roseoflavin (RoF), and a relative survival rate was calculated assuming that mitochondrial respiratory chain activity corresponded to the survival rate.
(§2) Human pancreatic cancer cell lines, MIAPaCa-2, PANC-1, and Capan-1 were used for performing MTS assay with RoF. All the cell lines were obtained from ATCC. Each of the cell lines was cultured with the following medium in the presence of 5% CO2 at 37° C. • MIAPaCa-2: Dulbecco's Modified Eagle's Medium (Nakalai Tesque) supplemented with 10% fetal bovine serum (Gibco) and 1% penicillin-streptomycin (Nakalai Tesque) • PANC-1: RPMI 1640 medium (Nakalai Tesque) supplemented with 10% fetal bovine serum (Gibco) and 1% penicillin-streptomycin (Nakalai Tesque) • Capan-1: IMDM medium (Iscove's Modified Dulbecco's Medium) (Nakalai Tesque) supplemented with 20% fetal bovine serum (Gibco) and 1% penicillin-streptomycin (Nakalai Tesque)
(§3) Roseoflavin (RoF) was prepared to 0 μM (DMSO alone), 0.1 mM, 0.3 mM, 1 mM, 3 mM, and 10 mM, and the resultants were respectively diluted with the medium by 1000 times to obtain agent solutions (RoF final concentration: 0 μM, 0.1 μM, 0.3 μM, 1 μM, 3 μM and […]).
(§4) In a 96 well plate, MIAPaCa-2 was seeded at 500 cells/well, PANC-1 was seeded at 2,000 cells/well, and Capan-1 was seeded at 10,000 cells/well (in 100 μL of the medium). After these were cultured for 1 day, the RoF agent solution at each concentration was added to the cells in the 96 well plate in an amount of 10 μL each (final concentration of DMSO: 0.1%). Each combination was tested in 3 wells. After the addition of the agent solution, the resultant was cultured in the presence of 5% CO2 at 37° C. for 24, 48 or 72 hours, and a cell survival rate was measured with MTS Assay (Cell Titer 96®, Promega). The survival rate was expressed as a ratio to that of the control (solvent alone) cultured for 72 hours.

[3] = test system: Capan-1; assay: MTS assay, relative survival rate with roseoflavin; type: cell-based, human; details: RoF 0.1 to 10 μM, 24, 48 or 72 hours, ratio to solvent control at 72 hours
Method: as §1, §2, §3, §4

[4] = test system: PANC-1; assay: MTS assay, relative survival rate with roseoflavin; type: cell-based, human; details: RoF 0.1 to 10 μM, 24, 48 or 72 hours, ratio to solvent control at 72 hours
Method: as §1, §2, §3, §4

[5] = test system: Capan-1; assay: Spheroid formation in three-dimensional methylcellulose culture; type: cell-based, human; details: 10 μM RoF, 1 nM Tr, day 21 of culture
Method: (§5) The pancreatic cancer cell lines (AsPC-1 and Capan-1) having 4-hit mutation were three-dimensionally cultured in methylcellulose-containing media.
(§6) In a 24 well plate (upper layer: 1.8% methylcellulose, lower layer: 0.48% agarose), AsPC-1 was seeded at 5×10^3 cells/well (in 100 μL of the medium). After culturing for 1 day (day 1), DMSO (control), 10 μM roseoflavin (RoF), 1 nM trametinib (Tr), or 10 μM RoF+1 nM Tr was respectively added to the 24 well plate (final concentration of DMSO: 0.1%). After adding the agent solution, the resultant was cultured in the presence of 5% CO2 at 37° C., and a culture fluid was added on day 14. The resultant was further cultured, and each group was photographed on day 21 to measure the size and the number of spheroids. It is noted that the following media were used for culturing the respective cell lines: • AsPC-1: RPMI 1640 medium (Nakalai Tesque) supplemented with 10% fetal bovine serum (Gibco) and 1% penicillin-streptomycin (Nakalai Tesque) • Capan-1: IMDM medium (Iscove's Modified Dulbecco's Medium) (Nakalai Tesque) supplemented with 20% fetal bovine serum (Gibco) and 1% penicillin-streptomycin (Nakalai Tesque)

[6] = test system: AsPC-1; assay: as above; type: cell-based, human; details: 10 μM RoF, 1 nM Tr, day 21 of culture
Method: as §5, §6

[7] = test system: 4-hit flies (non-GFP); assay: Survival rate of 4-hit flies raised on agent diet; type: in vivo, Drosophila; details: in diet: 0.5 μM trametinib, 50 μM roseoflavin; raised at 25° C. for 13 days
Method: Roseoflavin and trametinib were dissolved in DMSO (Sigma) to be stored at −20° C.
Agar (Wako), brewers' yeast (MPBio), yeast extract (Sigma Aldrich), Bacto Casitone (BD), sucrose (Wako), glucose (Wako), MgCl2 (Wako), CaCl2) (Wako), propionic acid (Wako), Mold Inhibitor (10% methyl-4-hydroxy benzoate in 95% ethanol: Wako) were dissolved in ultrapure water to produce a standard diet. While this was being warmed at 50° C., an agent (trametinib alone, or a combination of roseoflavin and trametinib) dissolved in DMSO was added thereto to be mixed, and the resultant was cooled to prepare an agent diet. Final concentrations in the diet of the respective compounds were set to 0.5 μM for trametinib, and 50 μM for roseoflavin.
The UAS-RasG12D, UAS-p53 shRNA, UAS-CycE, UAS-Med shRNA fly produced in Example 1 was crossbred with a Ser-gal4 fly (Bloomington Drosophila Stock Center), and the parent flies were caused to lay eggs for 2 days on the standard diet or the agent diet, and thus, 20 to 50 eggs per vial, of Ser-gal4; UAS-RasG12D, UAS-p53 shRNA, UAS-CycE, UAS-Med shRNA 4-hit flies (non-GFP) were obtained. These eggs were raised at 25° C. for 13 days, and survival rate of the 4-hit flies (non-GFP) raised on each diet was calculated by dividing the number of eclosed individuals by the total number of pupae.

Cc1cc2nc3c(=O)[nH]c(=O)nc-3n(C[C@H](O)[C@H](O)[C@H](O)CO)c2cc1N(C)C [roseoflavin]
amount of FAD (flavin adenine dinucleotide) within the cells [1]: smaller than those in the control
amount of FMN (flavin mononucleotide) within the cells [1]: smaller than those in the control
amount of RF (riboflavin) within the cells [1]: smaller than those in the control
relative survival rate (mitochondrial respiratory chain activity) [2]: deteriorated mitochondrial respiratory chain activity in a dose dependent manner to decrease the relative survival rate
relative survival rate (mitochondrial respiratory chain activity) [3]: deteriorated mitochondrial respiratory chain activity in a dose dependent manner to decrease the relative survival rate
relative survival rate (mitochondrial respiratory chain activity) [4]: deteriorated mitochondrial respiratory chain activity in a dose dependent manner to decrease the relative survival rate
number of spheroids of 0.1 mm or smaller [5]: increased
spheroid formation, spheroids of 0.1 to 0.2 mm and larger than 0.2 mm [5]: spheroid formation was suppressed
spheroid formation, spheroids of 0.1 to 0.2 mm and larger than 0.2 mm [6]: spheroid formation was suppressed

CC(=O)Nc1cccc(-n2c(=O)n(C3CC3)c(=O)c3c(Nc4ccc(I)cc4F)n(C)c(=O)c(C)c32)c1 [trametinib]
improvement of survival rate of 4-hit flies (eclosed individuals / total pupae) [7]: about 10%
